Assay results from patent US20260166122A1, “USE OF MICROPEPTIDE MIAC” (NANJING ANJI BIOTECHNOLOGY CO., LTD, priority 2023, published 2026).
Where two headings read alike, the source gives them in different places. Marks after values point to notes of the source that are not given here. Ends that are not written are not given here.

How the values were obtained:
Assay type in all cases: cell-based
Conditions in all cases: 72 h
[1] = system: human gastric carcinoma cells BGC-823
[2] = system: human cervical cancer cells SIHA
Protocol: (§1) Human pancreatic cancer, hepatocellular carcinoma, colorectal cancer, ovarian cancer, cervical cancer, bladder cancer, melanoma, glioblastoma, neuroblastoma, glioma, osteosarcoma, myeloma, lymphoma, hematologic malignancies, and cholangiocarcinoma cells were cultured in an incubator at 37° C. with 5% CO2 until the density reached 90%, then digested and collected with trypsin, resuspended in a culture medium, and counted under a microscope; the cell concentration was adjusted to about 1.0×10^5 cells/mL; and the cell suspension was inoculated into a 96-well plate, with 100 μL per well, and incubated overnight in an incubator at 37° C. with 5% CO2. After the cells were completely attached to the wall, 100 μL of micropeptides MIAC with concentrations of 50 μM, 100 μM and 200 μM were added to form an administration group; and a culture medium without any medicament was used as a negative control group. After continuing incubation for 72 h, 100 μL of CCK8 was added to each well of the 96-well plate for dissolving. The absorbance OD was measured at a detection wavelength of 450 nm with a microplate reader, and the proliferation inhibition (PI) was calculated using the formula of PI (%)=1-administration group/negative control group. The experiment was repeated 3 times independently, the results were expressed as Mean±SD, and a statistical T test was performed, where *P<0.05 indicated a significant difference and **P<0.01 indicated an extremely significant difference.

[3] = system: human histiocytic lymphoma cells U937
Protocol: as §1

[4] = system: human myeloid leukemia cells HL60
Protocol: as §1

[5] = system: peripheral blood B lymphocytes RPMI-8226 in human multiple myeloma
Protocol: as §1

[6] = system: human colon cancer cells LOVO
Protocol: as §1

[7] = system: human osteosarcoma cells MG-63
Protocol: as §1

[8] = system: human pancreatic cancer cells MIP-PaCa-2
Protocol: as §1

[9] = system: human malignant melanoma cells SK-mel-2
Protocol: as §1

[10] = system: human hepatocellular carcinoma cells HepG2
Protocol: as §1

[11] = system: human cholangiocarcinoma cells QBC939
Protocol: as §1

[12] = system: human chronic myeloid leukemia cells K562
Protocol: as §1

[13] = system: human monocytic leukemia cells Thp-1
Protocol: as §1

[14] = system: human hepatocellular carcinoma cells QGY-7701
Protocol: as §1

[15] = system: human malignant melanoma cells M14
Protocol: as §1

[16] = system: human mantle cell lymphoma cells JeKo-1
Protocol: as §1

[17] = system: human osteogenic sarcoma cells Saos-2
Protocol: as §1

[18] = system: human myeloma cells ARP-1
Protocol: as §1

[19] = system: human myeloma cells NCI-H929
Protocol: as §1

[20] = system: human bladder cancer cells EJ
Protocol: as §1

[21] = system: human acute non-T non-B lymphocytic leukemia cells Reh
Protocol: as §1

[22] = system: human osteosarcoma cells U-2OS
Protocol: as §1

[23] = system: human diffuse large B-cell lymphoma cells WSU-DLCL2
Protocol: as §1

Q: For “MERAGVPGFSPRRSSVEAKMQSTSCSVRKSSTVTAWPAVVLLLSWGQRRGG [MIAC, micropeptide inhibiting actin cytoskeleton]”, which OD ([1]; BGC-823, 50 μM) is on record?
A: 0.950 ± 0.045

Q: And the OD ([1]; BGC-823, 100 μM)?
A: 0.556 ± 0.029

Q: And the OD ([1]; BGC-823, 200 μM)?
A: 0.327 ± 0.025

Q: What about the OD ([2]; 50 μM) of the same sequence?
A: 0.844 ± 0.099**

Q: What about the OD ([2]; 100 μM) of the same sequence?
A: 0.755 ± 0.103**

Q: What about the OD ([2]; 200 μM) of the same sequence?
A: 0.261 ± 0.052**

Q: And the OD ([3]; U937, 50 μM)?
A: 1.069 ± 0.028

Q: What about the OD ([3]; U937, 100 μM) of the same sequence?
A: 0.821 ± 0.047**

Q: And the OD ([3]; U937, 200 μM)?
A: 0.684 ± 0.046**

Q: And the OD ([4]; HL60, 50 μM)?
A: 1.378 ± 0.029**

Q: And the OD ([4]; HL60, 100 μM)?
A: 0.725 ± 0.027**

Q: What about the OD ([4]; HL60, 200 μM) of the same sequence?
A: 0.549 ± 0.023**

Q: What about the OD ([5]; RPMI-8226, 50 μM) of the same sequence?
A: 2.008 ± 0.023

Q: What about the OD ([5]; RPMI-8226, 100 μM) of the same sequence?
A: 1.001 ± 0.027**

Q: And the OD ([5]; RPMI-8226, 200 μM)?
A: 0.522 ± 0.028**

Q: And the OD ([6]; 50 μM)?
A: 1.148 ± 0.008**

Q: And the OD ([6]; 100 μM)?
A: 0.970 ± 0.021**

Q: What about the OD ([6]; 200 μM) of the same sequence?
A: 0.624 ± 0.026**

Q: And the OD ([7]; MG-63, 50 μM)?
A: 1.049 ± 0.011**

Q: What about the OD ([7]; MG-63, 100 μM) of the same sequence?
A: 0.691 ± 0.033**

Q: What about the OD ([7]; MG-63, 200 μM) of the same sequence?
A: 0.365 ± 0.009**

Q: What about the OD ([8]; MIP-PaCa-2, 50 μM) of the same sequence?
A: 0.898 ± 0.035

Q: And the OD ([8]; MIP-PaCa-2, 100 μM)?
A: 0.866 ± 0.035**

Q: And the OD ([8]; MIP-PaCa-2, 200 μM)?
A: 0.571 ± 0.038**

Q: What about the OD ([9]; SK-mel-2, 50 μM) of the same sequence?
A: 1.302 ± 0.043**

Q: What about the OD ([9]; SK-mel-2, 100 μM) of the same sequence?
A: 0.822 ± 0.060**

Q: And the OD ([9]; SK-mel-2, 200 μM)?
A: 0.570 ± 0.011**

Q: And the OD ([10]; HepG2, 50 μM)?
A: 0.575 ± 0.047**

Q: And the OD ([10]; HepG2, 100 μM)?
A: 0.267 ± 0.022**

Q: What about the OD ([10]; HepG2, 200 μM) of the same sequence?
A: 0.169 ± 0.015**

Q: What about the OD ([11]; QBC939, 50 μM) of the same sequence?
A: 1.13 ± 0.053

Q: And the OD ([11]; QBC939, 100 μM)?
A: 0.757 ± 0.028**

Q: And the OD ([11]; QBC939, 200 μM)?
A: 0.468 ± 0.045**

Q: And the OD ([12]; K562, 50 μM)?
A: 1.004 ± 0.012**

Q: What about the OD ([12]; K562, 100 μM) of the same sequence?
A: 0.544 ± 0.062**

Q: What about the OD ([12]; K562, 200 μM) of the same sequence?
A: 0.338 ± 0.025**

Q: What about the OD ([13]; Thp-1, 50 μM) of the same sequence?
A: 1.265 ± 0.059

Q: And the OD ([13]; Thp-1, 100 μM)?
A: 0.841 ± 0.058**

Q: What about the OD ([13]; Thp-1, 200 μM) of the same sequence?
A: 0.681 ± 0.045**

Q: What about the OD ([14]; QGY-7701, 50 μM) of the same sequence?
A: 1.185 ± 0.018**

Q: What about the OD ([14]; QGY-7701, 100 μM) of the same sequence?
A: 0.785 ± 0.030**

Q: And the OD ([14]; QGY-7701, 200 μM)?
A: 0.520 ± 0.019**

Q: And the OD ([15]; M14, 50 μM)?
A: 1.585 ± 0.030

Q: What about the OD ([15]; M14, 100 μM) of the same sequence?
A: 1.046 ± 0.060**

Q: And the OD ([15]; M14, 200 μM)?
A: 0.639 ± 0.046**

Q: What about the OD ([16]; JeKo-1, 50 μM) of the same sequence?
A: 1.174 ± 0.027

Q: What about the OD ([16]; JeKo-1, 100 μM) of the same sequence?
A: 0.820 ± 0.078**

Q: And the OD ([16]; JeKo-1, 200 μM)?
A: 0.496 ± 0.052**

Q: And the OD ([17]; Saos-2, 50 μM)?
A: 1.198 ± 0.067

Q: And the OD ([17]; Saos-2, 100 μM)?
A: 0.946 ± 0.016**

Q: And the OD ([17]; Saos-2, 200 μM)?
A: 0.627 ± 0.052**

Q: What about the OD ([18]; ARP-1, 50 μM) of the same sequence?
A: 0.985 ± 0.008

Q: And the OD ([18]; ARP-1, 100 μM)?
A: 0.692 ± 0.047**

Q: What about the OD ([18]; ARP-1, 200 μM) of the same sequence?
A: 0.433 ± 0.013**

Q: What about the OD ([19]; NCI-H929, 50 μM) of the same sequence?
A: 0.860 ± 0.012**

Q: What about the OD ([19]; NCI-H929, 100 μM) of the same sequence?
A: 0.427 ± 0.016**

Q: And the OD ([19]; NCI-H929, 200 μM)?
A: 0.263 ± 0.026**

Q: And the OD ([20]; 50 μM)?
A: 1.126 ± 0.017

Q: And the OD ([20]; 100 μM)?
A: 0.891 ± 0.009**

Q: What about the OD ([20]; 200 μM) of the same sequence?
A: 0.628 ± 0.045**

Q: What about the OD ([21]; 50 μM) of the same sequence?
A: 0.964 ± 0.037

Q: What about the OD ([21]; 100 μM) of the same sequence?
A: 0.687 ± 0.019**

Q: What about the OD ([21]; 200 μM) of the same sequence?
A: 0.421 ± 0.029**

Q: And the OD ([22]; 50 μM)?
A: 0.887 ± 0.024

Q: What about the OD ([22]; 100 μM) of the same sequence?
A: 0.596 ± 0.061**

Q: What about the OD ([22]; 200 μM) of the same sequence?
A: 0.350 ± 0.013**

Q: And the OD ([23]; WSU-DLCL2, 50 μM)?
A: 0.908 ± 0.061

Q: What about the OD ([23]; WSU-DLCL2, 100 μM) of the same sequence?
A: 0.684 ± 0.039**

Q: And the OD ([23]; WSU-DLCL2, 200 μM)?
A: 0.264 ± 0.056**
